These results are taken from patent US20250163002A1, “FUSED QUINONOXIME IMIDAZOLE, ONIUM DERIVATIVES THEREOF, PREPARATION AND USE THEREOF” (SHANGHAI JIAO TONG UNIVERSITY, priority 2022, published 2025).

The IC50 is the point on the concentration scale where inhibition reaches its midpoint. Lower therefore signals higher potency.

The test system of one data set is Adenovirus. As to the kind of experiment: Antiviral activity, plaque test in 293A cells. It counts as cell-based. To be noted: adenovirus in 293A cells; for non-CPE blank plaques observed: observation by day. The procedure: Experimental method: 4.59 mg of the compound 125 were weighed and put to a 15 mL centrifugal tube with the addition of 10 mL of sterile water, and dissolved via vortex oscillation until there was no obvious yellow particle, then subpackaged and stored at −20° C., 200 μL/piece (concentration: 1 mM); 2.79 mg Cidofovir (molecular weight: 279) were weighed and added to the 15 mL centrifugal tube, dissolved with the addition of 10 mL sterile water, then subpackaged and stored at −20° C., 200 μL/piece (concentration: 1 mM).
Plaque test: • 1. 293A cells were paved into a 24-well plate with 150,000 cells per well, and cultured at 37° C. for 12-24 h, then used for test after growing to 90%. • 2. 2% low-melting point agarose gel was melted and put to a 56° C. water bath kettle for further use. • 3. Adenovirus having a titer of 10^9 TCID^50/mL was diluted by 10^5 folds; medium in the 24-well plate was removed, and 200 μL of adenoviral diluent was added per well and incubated in a 37° C. 5% CO2 incubator, shaken once every 30 min, and incubated for 1 h in total. • 4. The drug compound 125 to be tested and Cidofovir were double diluted with 2×MEM (16 μL compound 125 was added to 8 mL of 2×MEM, oscillated and mixed well, then 4 mL mixed solution was taken and added to fresh 4 mL of 2×MEM and mixed well, and 5 dilutions were conducted, being 2 μM, 1 μM, 500 nM, 250 nM, and 125 nM, respectively; the maximum concentration of the compound 125 was 1 μM. Similarly, 400 μL Cidofovir was added to 7.6 mL of 2×MEM, oscillated and mixed well, then 4 mL mixed solution was taken and added to fresh 4 mL of 2×MEM and mixed well, and 5 dilutions were conducted, being 50 μM, 25 μM, 12.5 μM, 6.25 μM, and 3.125 μM, respectively); the diluted solution was put at 37° C. for further use. • 4. The viral solution was discarded, and agarose gel preheated at 56° C. was added to 2×MEM by the same volume and mixed well, and then 2 mL of mixed solution was added per well, and incubated at room temperature for 30 min (gel). • 5. […]

The test system of data set [1] is gastric cancer cell KATO-III. As to the kind of experiment: In vitro proliferation inhibition, KATO-III. To be noted: unit inferred. It counts as cell-based. The procedure: (§1) Test method: pancreatic cancer cells CFPAC-1 were cultured in a Dalbeco-improved Eagle medium with the addition of 10% FBS and 5% double-antibody. CFPAC-1 cancer cells were inoculated into a 96-well plate for incubation for 24 h; in the following day, test compounds having various concentrations of (100, 20, 10, 1, 0.1, 0.01, and 0.001 μM) and positive control agents were added per well; corresponding volume of fresh medium was added to blank control. After addition for 24 h or 48 h, cell proliferation was evaluated by chromogenic reaction of MTT formazan.
(§2) In addition, compounds (I), (II), (III), and (IV) of the present invention have good inhibition activity against the proliferation of other cancer cells, including non-small cell lung cancer cell (H460, H1299), liver tumor cell (HepG2), rectal cancer cell (HT29), leukemia cell (CCRF-CEM), prostate cancer cell (PC-3), ovarian carcinoma cell (SKOV-3), melanoma cell (A375), myeloma cell (RPMI-8226), esophageal carcinoma cell (TE-1), pancreatic cancer cell (CFPAC-1, PANC-1, SW1990, ASPC-1, and BXPC-3), bladder cancer cell (5637), and gastric cancer cell (KATO-III).

Data set [2] relates to pancreatic cancer cell PANC-1. As to the kind of experiment: In vitro proliferation inhibition, PANC-1. The conditions noted are these: unit inferred. The data set is classed as cell-based. The procedure:
as §1, §2

Data set [3] concerns pancreatic cancer cells CFPAC-1. As to the kind of experiment: In vitro proliferation inhibition, CFPAC-1. The data set is classed as cell-based. To be noted: unit inferred. The procedure:
as §1, §2

The subject of data set [4] is prostate cancer cell PC-3. As to the kind of experiment: In vitro proliferation inhibition, PC-3. The data set is classed as cell-based. To be noted: unit inferred. The procedure:
as §1, §2

Data set [5] relates to ovarian carcinoma cell SKOV-3. Put plainly: In vitro proliferation inhibition, SKOV-3. It counts as cell-based. To be noted: unit inferred. The method, then: as §1, §2
Data set [6] has as its system pancreatic cancer cell BXPC-3. As to the kind of experiment: In vitro proliferation inhibition, BXPC-3. The data set is classed as cell-based. To be noted: unit inferred. The procedure: as §1, §2
Data set [7] has as its system CFPAC-1 pancreatic cancer cells. Put plainly: In vivo inhibition test of cancer cell proliferation, CFPAC-1 transplant. Details: species or system Balb/c naked mouse. The conditions noted are these: 7 mg/kg, once every other three days, 7 times; gross tumor volume. The procedure:
Test method: 3×10^7 CFPAC-1 pancreatic cancer cells were transplanted to subcutaneous tissues of armpit of a Balb/c naked mouse; administration was conducted when the tumor grew to 50-100 mm^3, 100-200 mm^3, and greater than 200 mm^3; the mouse was administered once every other three days, 7 times in total, and 7 mg/kg each time. Normal saline was injected in the control group. Tumor length and diameter were measured by calipers and weight of the moue was weighed until the next day of the final administration. Gross tumor volume was calculated by the following equation:
gross tumor volume (mm^3)=½×[short diameter (mm)]^2×long diameter (mm)

The next data set relates to HeLa. Put plainly: In vitro inhibition test for cancer cell proliferation (MTT), HeLa. It counts as cell-based. To be noted: 24 h or 48 h after addition, unit inferred.
The next data set concerns rectal cancer cell HT29. As to the kind of experiment: In vitro proliferation inhibition, HT29. It counts as cell-based. The conditions noted are these: unit inferred. The method, then: as §1, §2
For another data set, the system named is myeloma cell RPMI-8226. Put plainly: In vitro proliferation inhibition, RPMI-8226. The data set is classed as cell-based. To be noted: unit inferred. The procedure: as §1, §2
Data set [8] has as its system pancreatic cancer cell ASPC-1. Put plainly: In vitro proliferation inhibition, ASPC-1. The data set is classed as cell-based. The conditions noted are these: unit inferred. The method, then: as §1, §2
Another data set deals with A549. Put plainly: In vitro inhibition test for cancer cell proliferation (MTT), A549. The data set is classed as cell-based. To be noted: 24 h or 48 h after addition, unit inferred.
The subject of data set [9] is non-small cell lung cancer cell H1299. Put plainly: In vitro proliferation inhibition, H1299. The data set is classed as cell-based. To be noted: unit inferred. The method, then: as §1, §2
A further data set has as its system L929. Put plainly: In vitro cell proliferation inhibition test (MTT), L929. The data set is classed as cell-based. To be noted: 24 h or 48 h after addition, unit inferred.
The subject of the next data set is leukemia cell CCRF-CEM. Put plainly: In vitro proliferation inhibition, CCRF-CEM. The data set is classed as cell-based. The conditions noted are these: unit inferred. The procedure: as §1, §2
For a further data set, the system named is bladder cancer cell 5637. As to the kind of experiment: In vitro proliferation inhibition, 5637. The data set is classed as cell-based. To be noted: unit inferred. The procedure: as §1, §2
The subject of data set [10] is non-small cell lung cancer cell H460. As to the kind of experiment: In vitro proliferation inhibition, H460. The conditions noted are these: unit inferred. It counts as cell-based. The procedure: as §1, §2
Data set [11] concerns esophageal carcinoma cell TE-1. As to the kind of experiment: In vitro proliferation inhibition, TE-1. The data set is classed as cell-based. To be noted: unit inferred. The procedure:
as §1, §2

The next data set has as its system liver tumor cell HepG2. Put plainly: In vitro proliferation inhibition, HepG2. The data set is classed as cell-based. To be noted: unit inferred. The procedure: as §1, §2
The subject of another data set is MCF-7. Put plainly: In vitro inhibition test for cancer cell proliferation (MTT), MCF-7. The conditions noted are these: 24 h or 48 h after addition, unit inferred. It counts as cell-based.
The test system of a further data set is melanoma cell A375. Put plainly: In vitro proliferation inhibition, A375. The data set is classed as cell-based. The conditions noted are these: unit inferred. The procedure:
as §1, §2

In data set [12] the test system is pancreatic cancer cell SW1990. As to the kind of experiment: In vitro proliferation inhibition, SW1990. The data set is classed as cell-based. To be noted: unit inferred. The procedure:
as §1, §2

A short description of data set [13]: Compound toxicity test, body weight changes. It counts as in vivo, balb/c mice. To be noted: tail intravenous injection, 5 mg/kg every day for 7 consecutive days. The method, then: Test method: the compounds 121, 123, 124, 125, 128, 132, 137, 138, 139, 140, 143, 144, 145, 146, and 147 in the examples of the present invention were administered every day via tail intravenous injection at a dose of 5 mg/kg for 7 consecutive days, and then body weight changes of the balb/c mice were monitored.

Turning to `Nc1ccn(C[C@@H](CO)OCP(=O)(O)O)c(=O)n1` [Cidofovir, reference compound], the “non-CPE blank plaques observed” value in the data set on Adenovirus was 4 days later, lots of blank plaques formed by non-CPE could be observed.

`Cn1c[n+](C)c2c1C(=O)c1ccccc1C2=NOCc1ccccc1.[I-]` [Compound 125, (E) and (Z)-4-((benzyloxy)imino)-1,3-dimethyl-9-oxo-4,9-dihydro-1H-naphthol[2,3-d]imidazole-3-iodide]: the IC50 in [1] was found to be 9 nM; in [2] it was 970 nM; in data set [3], 6 nM; in [4], 26500 nM; in data set [5], 90 nM; in [6], 3 nM. The IC50 in the data set with HeLa turned out to be 5300 nM; in the data set on rectal cancer cell HT29, 5400 nM; in the data set with myeloma cell RPMI-8226 it was 89000 nM; in [8], 5 nM; in the data set on A549 it was 5 nM; in data set [9], 260 nM. The IC50 was determined as 45300 nM with L929; 90 nM in the data set with leukemia cell CCRF-CEM; 40 nM in the data set with bladder cancer cell 5637; 160 nM in data set [10]; 60 nM in data set [11]; 9 nM in the data set on liver tumor cell HepG2. In addition, the figures for the IC50 (in the data set on MCF-7; with melanoma cell A375; in [12]) were 4500 nM, 2210 nM and 9 nM, respectively. Also, the “proliferation inhibition activity / inhibition ratio” value in [7] was found to be 100%. Besides, the “effect on viral replication” value with Adenovirus is listed as “inhibiting effect on viral replication”.

`CC(C)ON=C1c2ccccc2C(=O)c2c1[n+](C)cn2C.[I-]` [Compound 127, (E) and (Z)-4-(isopropoxyimino)-1,3-dimethyl-9-oxo-4,9-dihydro-1H-naphthol[2,3-d]imidazole-3-iodide]: the IC50 is 25100 nM in the data set with HeLa, 90 nM in the data set with A549, 29600 nM with L929 and 7900 nM in the data set with MCF-7. Besides, the “non-CPE blank plaques observed” value in the data set with Adenovirus is given as 5 days later, non-CPE blank plaque also appeared in the low concentration group.

Regarding `Nc1ccn([C@@H]2O[C@H](CO)[C@@H](O)C2(F)F)c(=O)n1` [gemcitabine], the “condition and body weight changes of the mice” value in [13] was “obviously reduced weight and are dispirited”.
